According to publication PMC9096814 (Biochemistry, 2022):
Where two headings read alike, the source gives them in different places.

Columns and labels:
[1] = target: Cathepsin V (Homo sapiens, UniProt O60911); experiment: Selectivity assay, cathepsin V; assay type: biochemical; conditions: for % inhibition: 16 μM inhibitor
[2] = target: T1, cathepsin B (Homo sapiens, UniProt P07858); experiment: Irreversible inhibition mechanism by dilution experiments; assay type: biochemical; conditions: pH 4.6, pH 5.5, and pH 7.2; preincubation at 10 times the IC50, diluted 100-fold, Z-F-R-AMC added
[3] = target: Cathepsin S (Homo sapiens, UniProt P25774); experiment: Selectivity assay, cathepsin S; assay type: biochemical; conditions: for % inhibition: 16 μM inhibitor
[4] = target: Cathepsin L (Homo sapiens, UniProt P07711); experiment: Selectivity assay, cathepsin L; assay type: biochemical; conditions: for % inhibition: 16 μM inhibitor
[5] = target: Cathepsin C (Homo sapiens, UniProt P53634); experiment: Selectivity assay, cathepsin C; assay type: biochemical; conditions: for % inhibition: 16 μM inhibitor
[6] = target: Cathepsin H (Homo sapiens, UniProt P09668); experiment: Selectivity assay, cathepsin H; assay type: biochemical; conditions: for % inhibition: 16 μM inhibitor
[7] = target: T1, cathepsin B; experiment: Cathepsin B activity assay with Z-Phe-Arg-AMC, inhibition kinetics; assay type: biochemical; conditions: for KI (inactivation): read-out: KI, irreversible inhibitor kinetics
[8] = target: Cathepsin X (Homo sapiens, UniProt Q9UBR2); experiment: Selectivity assay, cathepsin X; assay type: biochemical; conditions: for % inhibition: 16 μM inhibitor
[9] = target: T2, Cathepsin K (Homo sapiens, UniProt P43235); experiment: Selectivity assay, cathepsin K; assay type: biochemical; conditions: for % inhibition: 16 μM inhibitor
T2 sequence (P43235 115-329): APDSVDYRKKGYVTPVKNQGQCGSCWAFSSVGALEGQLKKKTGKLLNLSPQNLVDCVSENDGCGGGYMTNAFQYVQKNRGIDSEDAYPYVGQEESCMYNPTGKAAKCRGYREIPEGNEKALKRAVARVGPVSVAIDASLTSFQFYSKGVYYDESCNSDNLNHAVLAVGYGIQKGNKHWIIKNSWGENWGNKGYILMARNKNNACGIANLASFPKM

[10] = test system: cathepsin B; conditions: ref [44]; cited from earlier work
[11] = target: T1, cathepsin B; experiment: Multiplex substrate profiling by mass spectrometry; assay type: biochemical; conditions: 10 nM inhibitor, 30 min preincubation

Cathepsin V, sequence (O60911 114-334): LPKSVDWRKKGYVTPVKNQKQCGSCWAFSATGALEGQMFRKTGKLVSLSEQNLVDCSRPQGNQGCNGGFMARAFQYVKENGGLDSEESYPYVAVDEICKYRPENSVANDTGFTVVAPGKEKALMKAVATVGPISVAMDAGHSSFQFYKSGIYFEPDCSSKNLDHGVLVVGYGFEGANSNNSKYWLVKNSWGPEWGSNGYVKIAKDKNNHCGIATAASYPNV
Cathepsin C, sequence (P53634 25-134 limits assumed): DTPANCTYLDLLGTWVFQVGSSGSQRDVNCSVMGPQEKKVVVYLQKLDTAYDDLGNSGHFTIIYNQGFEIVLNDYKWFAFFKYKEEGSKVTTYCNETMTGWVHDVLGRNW
Cathepsin C, sequence (P53634 231-394 limits assumed): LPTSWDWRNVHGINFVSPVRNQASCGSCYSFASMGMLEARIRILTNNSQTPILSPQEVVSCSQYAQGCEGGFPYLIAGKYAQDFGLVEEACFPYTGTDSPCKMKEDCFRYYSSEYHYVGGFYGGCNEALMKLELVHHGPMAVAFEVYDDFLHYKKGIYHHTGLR
Cathepsin C, sequence (P53634 395-463 limits assumed): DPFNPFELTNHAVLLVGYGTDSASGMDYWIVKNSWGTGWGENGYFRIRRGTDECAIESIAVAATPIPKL
Cathepsin H, sequence (P09668 116-335 limits assumed, other chains not shown): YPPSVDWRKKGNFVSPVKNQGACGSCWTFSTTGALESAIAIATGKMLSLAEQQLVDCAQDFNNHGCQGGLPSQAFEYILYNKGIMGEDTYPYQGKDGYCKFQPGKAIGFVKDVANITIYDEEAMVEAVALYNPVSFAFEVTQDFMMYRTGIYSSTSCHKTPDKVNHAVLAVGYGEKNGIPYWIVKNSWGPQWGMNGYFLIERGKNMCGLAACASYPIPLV
Cathepsin S, sequence (P25774 115-331): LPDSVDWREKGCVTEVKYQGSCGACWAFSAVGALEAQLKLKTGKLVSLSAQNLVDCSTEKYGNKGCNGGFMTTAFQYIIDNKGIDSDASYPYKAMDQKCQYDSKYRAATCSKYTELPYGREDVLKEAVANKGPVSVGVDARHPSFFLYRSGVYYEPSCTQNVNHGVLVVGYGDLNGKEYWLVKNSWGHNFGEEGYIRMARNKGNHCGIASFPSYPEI
Cathepsin X, sequence (Q9UBR2 62-303): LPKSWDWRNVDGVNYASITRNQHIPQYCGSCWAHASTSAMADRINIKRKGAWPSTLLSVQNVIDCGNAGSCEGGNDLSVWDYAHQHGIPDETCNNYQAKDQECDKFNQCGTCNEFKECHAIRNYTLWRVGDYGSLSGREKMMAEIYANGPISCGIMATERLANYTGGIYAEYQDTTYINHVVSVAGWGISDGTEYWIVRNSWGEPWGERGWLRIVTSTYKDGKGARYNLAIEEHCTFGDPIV
Cathepsin L, sequence (P07711 114-333): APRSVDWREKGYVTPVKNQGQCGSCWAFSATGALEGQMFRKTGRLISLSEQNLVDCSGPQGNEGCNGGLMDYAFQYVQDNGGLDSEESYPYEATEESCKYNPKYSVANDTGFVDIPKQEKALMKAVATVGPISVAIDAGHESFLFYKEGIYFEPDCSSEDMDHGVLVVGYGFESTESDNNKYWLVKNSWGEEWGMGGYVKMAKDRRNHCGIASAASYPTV

For `CCCNC(=O)[C@H]1O[C@@H]1C(=O)N[C@H](C(=O)N1CCC[C@H]1C(=O)OC)[C@@H](C)CC` [CA-074Me], the IC50 ([1]; pH 5.5) was over 16 µM, the “% inhibition” value ([1]; pH 5.5) was 22% and the IC50 ([1]; pH 7.2) was over 16 µM. For the same compound, the “% inhibition” value ([1]; pH 7.2) was 0%, the “irreversible or reversible inhibition of cathepsin B” value [2] was “irreversible inhibition” and the IC50 ([3]; pH 4.6) was over 16 µM. The “% inhibition” value ([3]; pH 4.6) was 22%, the IC50 ([3]; pH 5.5) was 5.5 µM and the IC50 ([3]; pH 7.2) was 3.8 µM. For the same compound, the IC50 ([4]; pH 4.6) was over 16 µM, the “% inhibition” value ([4]; pH 4.6) was 0% and the IC50 ([4]; pH 5.5) was over 16 µM. For the same compound, the “% inhibition” value ([4]; pH 5.5) was 0%, the IC50 ([5]; pH 4.6) was over 16 µM and the “% inhibition” value ([5]; pH 4.6) was 5%. The IC50 ([5]; pH 5.5) was over 16 µM, the “% inhibition” value ([5]; pH 5.5) was 0% and the IC50 ([5]; pH 7.2) was over 16 µM. The “% inhibition” value ([5]; pH 7.2) was 4%, the IC50 ([6]; pH 4.6) was over 16 µM and the “% inhibition” value ([6]; pH 4.6) was 0%. The IC50 ([6]; pH 5.5) was over 16 µM, the “% inhibition” value ([6]; pH 5.5) was 0% and the IC50 ([6]; pH 7.2) was over 16 µM. For the same compound, the “% inhibition” value ([6]; pH 7.2) was 19%, the IC50 ([7]; pH 4.6) was 8.9 µM and the “fold less potent than CA-074 (IC50)” value ([7]; pH 4.6) was 1495 fold. For the same compound, the kinact ([7]; pH 4.6) was 0.016 s⁻¹, the kinact/KI ([7]; pH 4.6) was 310 M⁻¹ s⁻¹ and the IC50 ([7]; pH 4.6, Z-Phe-Arg-AMC substrate, no preincubation) was 8.97 µM. The “fold less potent than CA-074 (IC50)” value ([7]; pH 5.5) was 311 fold, the kinact ([7]; pH 5.5) was 0.014 s⁻¹ and the kinact/KI ([7]; pH 5.5) was 250 M⁻¹ s⁻¹. The “potency (KI) compared to CA-074” value ([7]; pH 5.5) was 1/265, the IC50 ([7]; pH 5.5, Z-Phe-Arg-AMC substrate, no preincubation) was 13.7 µM and the IC50 ([7]; pH 7.2) was 7.6 µM. The “fold less potent than CA-074 (IC50)” value ([7]; pH 7.2) was 10 fold, the kinact ([7]; pH 7.2) was 0.014 s⁻¹ and the kinact/KI ([7]; pH 7.2) was 480 M⁻¹ s⁻¹. For the same compound, the “potency (KI) compared to CA-074” value ([7]; pH 7.2) was 1/15, the IC50 ([7]; pH 7.2, Z-Phe-Arg-AMC substrate, no preincubation) was 7.56 µM and the KI (inactivation) ([7]; pH 4.6) was 52 µM. The KI (inactivation) ([7]; pH 5.5) was 56 µM, the KI (inactivation) ([7]; pH 7.2) was 29 µM and the IC50 ([8]; pH 4.6) was over 16 µM. The “% inhibition” value ([8]; pH 4.6) was 0%, the IC50 ([8]; pH 5.5) was over 16 µM and the “% inhibition” value ([8]; pH 5.5) was 0%. The IC50 ([9]; pH 4.6) was over 16 µM, the “% inhibition” value ([9]; pH 4.6) was 0% and the IC50 ([9]; pH 5.5) was over 16 µM. The “% inhibition” value ([9]; pH 5.5) was 0%, the IC50 ([9]; pH 7.2) was over 16 µM and the “% inhibition” value ([9]; pH 7.2) was 16%.

In the case of `Cc1cccc(C)c1C(=O)OCC(=O)[C@H](CCCCN)NC(=O)[C@H](CCCN=C(N)N)NC(=O)OCc1ccccc1` [Z-Arg-Lys-AOMK], the “fold selective at inhibiting cathepsin B at pH 7.4 over pH 4.6” value [10] is listed as over 100 fold.

For `CCCNC(=O)[C@H]1O[C@@H]1C(=O)N[C@H](C(=O)N1CCC[C@H]1C(=O)O)[C@@H](C)CC` (relative stereo) [CA-074, N-(L-3-trans-propylcarbamoyloxirane-2-carbonyl)-L-isoleucyl-L-proline], the IC50 ([1]; pH 4.6) was over 16 µM, the “% inhibition” value ([1]; pH 4.6, 16 µM) was 10% and the IC50 ([1]; pH 5.5) was over 16 µM. The IC50 ([1]; pH 7.2) was over 16 µM, the “irreversible or reversible inhibition of cathepsin B” value [2] was “irreversible” and the IC50 ([3]; pH 4.6) was over 16 µM. For the same compound, the IC50 ([3]; pH 5.5) was 4.8 µM, the IC50 ([3]; pH 7.2) was over 16 µM and the “% inhibition” value ([3]; pH 7.2) was 29%. For the same compound, the IC50 ([5]; pH 4.6) was over 16 µM, the IC50 ([5]; pH 5.5) was over 16 µM and the IC50 ([5]; pH 7.2) was over 16 µM. For the same compound, the “effect on cathepsin B cleavage of Z-Phe-Arg-AMC substrate” value ([7]; 10 nM inhibitor, pH 7.2) was “no effect”, the IC50 ([8]; pH 4.6) was over 16 µM and the “% inhibition” value ([8]; pH 4.6, 16 µM) was 5%. The IC50 ([8]; pH 5.5) was over 16 µM, the “effect on cathepsin B cleavages of peptide library substrates (MSP-MS)” value ([11]; pH 4.6) was “blocked” and the “effect on cathepsin B cleavages of peptide library substrates (MSP-MS)” value ([11]; pH 7.2) was “no effect”. For the same compound, the IC50 ([9]; pH 4.6) was over 16 µM, the “% inhibition” value ([9]; pH 4.6, 16 µM) was 8% and the IC50 ([9]; pH 5.5) was over 16 µM. It also gave an IC50 ([9]; pH 7.2) of over 16 µM.
